Assay results as given in patent US9487762B1, “Method and system for producing triterpenes” (University of Kentucky Research Foundation, priority 2012, dated 2016).

Assays:
[1] = test system: six B. braunii SMT-like genes (TMT-1, -2, -3, SMT-1, -2, -3); assay: In vitro methyltransferase assay with sterol acceptor substrates; format: biochemical, Botryococcus braunii race B; conditions: 2 mM acceptor substrate, yeast microsomes, data not shown
Experimental: (§1) The various B. braunii SMT-like genes or empty vector control were expressed in TN-7 yeast and grown in 100 ml selection media for 3 days, after which microsomes were prepared according to the methods of Pompon et al. (27). Enzyme assays contained 50 mM HEPES, pH 7.5, either 0.01% (TMT-3) or 0.1% (all other samples) DHPC, 2 mM acceptor substrate (botryococcene, squalene, C32-botryococcene, C32-squalene, cycloartenol, zymosterol, or lanosterol), 50 μM 3H-SAM (˜150 dpm/pmole), 2 μl microsomes, in 100 μl total volume. Assays were set up by first combining everything except 3H-SAM and microsomes and treating with a sonicating water bath (Branson 2510) for ˜1 min. until the solution became cloudy due to micelle formation, after which 3H-SAM and microsomes were added and the reaction incubated at 37° C. for 5 min. Reactions were stopped by adding an equal volume of 10% (w/v) KOH in methanol, followed by extraction of hydrocarbon products with 400 μl n-hexane. An aliquot of the organic phase was spotted on silica TLC plates and developed with n-hexane:MTBE (25:1). Triterpenes were visualized with iodine vapor and the corresponding zones were scraped and subject to scintillation analysis.
None of the six enzymes was able to methylate C32 botryococcene or C32 squalene, possible intermediates to the tetramethylated forms (see below).

TMT-3 [2] = molecular target: T1, TMT-3 (Botryococcus braunii, UniProt H2E7T7); assay: In vivo co-expression in TN7 yeast with triterpene synthase, GC-MS of organic extracts; format: cell-based, Botryococcus braunii race B; conditions: TN7 yeast co-expressing TMT-3 and BSS
T1 construct: led to the identification of six full-length ORFs; expressed in transfected cells; host or cells: Saccharomyces cerevisiae TN7 (erg9 insertional mutant) co-expressing B. braunii squalene synthase (BSS) or SSL-1-3m
T1 sequence (H2E7T7 1-379): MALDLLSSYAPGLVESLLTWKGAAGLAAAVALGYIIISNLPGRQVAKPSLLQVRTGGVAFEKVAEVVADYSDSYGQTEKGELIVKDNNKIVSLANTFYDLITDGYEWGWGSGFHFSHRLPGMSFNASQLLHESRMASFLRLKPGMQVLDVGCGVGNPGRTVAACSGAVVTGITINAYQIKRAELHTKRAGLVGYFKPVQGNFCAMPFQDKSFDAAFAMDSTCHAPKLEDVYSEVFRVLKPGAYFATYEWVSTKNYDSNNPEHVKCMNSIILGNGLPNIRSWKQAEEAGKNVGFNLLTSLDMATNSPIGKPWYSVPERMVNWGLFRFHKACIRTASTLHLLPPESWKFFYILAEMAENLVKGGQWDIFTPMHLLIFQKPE
Description: (§2) Yeast lines previously developed for high level accumulation of squalene and botryococcene were used for evaluating the putative triterpene methyltransferase genes (17,23,24). These lines consist of the TN7 parental strain harboring an insertional mutation in the native yeast squalene synthase gene (ERG9) transformed with expression vectors containing either the full-length Botryococcus squalene synthase (BSS) gene (18) or a fusion of the Botryococcus SSL-1 and SSL-3 genes (functional equivalent of botryococcene synthase) including a sequence encoding for the carboxy-terminal membrane targeting domain of the Botryococcus squalene synthase protein (SSL-1-3m) (17). The various methyltransferase expression vectors were introduced into these two yeast lines using the lithium acetate transformation protocol, followed by selection for complementation of the uracil and leucine auxotrophic growth markers (24). […]
(§3) In brief, 1 ml aliquots of the culture were combined with 1 ml of acetone, mixed vigorously, and incubated at room temperature for 10 min. […] The mixture was then centrifuged briefly at 500 g to separate the phases, and an aliquot of the organic phase (1-3 μl) analyzed by GC-MS with a Varian CP-3800 GC coupled to a Varian Saturn 2200 MS/MS (Varian Medical Systems) using a Supelco SLB-5 ms fused silica capillary column (30 m×0.25 mm×0.25 μm film thickness, Supelco). […]

TMT-2 [3] = molecular target: T2, TMT-2 (Botryococcus braunii, UniProt H2E7T6); assay: as above; format: cell-based, Botryococcus braunii race B; parameters: led to the identification of six full-length ORFs; made in house; host or cells: Saccharomyces cerevisiae TN7 (TN-7); conditions: TN7 yeast co-expressing TMT-2 and BSS
T2 sequence (H2E7T6 1-378): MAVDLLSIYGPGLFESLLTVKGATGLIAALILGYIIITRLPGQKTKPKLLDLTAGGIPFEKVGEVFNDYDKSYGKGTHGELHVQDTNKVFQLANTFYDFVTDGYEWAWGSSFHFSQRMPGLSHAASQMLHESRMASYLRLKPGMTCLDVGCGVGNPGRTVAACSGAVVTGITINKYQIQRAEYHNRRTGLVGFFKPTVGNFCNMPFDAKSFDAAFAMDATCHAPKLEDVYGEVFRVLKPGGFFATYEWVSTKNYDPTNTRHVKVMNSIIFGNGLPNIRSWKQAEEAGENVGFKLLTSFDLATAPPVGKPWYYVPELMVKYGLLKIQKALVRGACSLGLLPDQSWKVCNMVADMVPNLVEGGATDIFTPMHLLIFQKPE
Description: as §2, §3

TMT-1 [4] = molecular target: T3, TMT-1 (Botryococcus braunii, UniProt H2E7T5); assay: as above; format: cell-based, Botryococcus braunii race B; parameters: led to the identification of six full-length ORFs; made in house; host or cells: Saccharomyces cerevisiae TN7 (TN-7); conditions: TN7 yeast co-expressing TMT-1 and BSS
T3 sequence (H2E7T5 1-378): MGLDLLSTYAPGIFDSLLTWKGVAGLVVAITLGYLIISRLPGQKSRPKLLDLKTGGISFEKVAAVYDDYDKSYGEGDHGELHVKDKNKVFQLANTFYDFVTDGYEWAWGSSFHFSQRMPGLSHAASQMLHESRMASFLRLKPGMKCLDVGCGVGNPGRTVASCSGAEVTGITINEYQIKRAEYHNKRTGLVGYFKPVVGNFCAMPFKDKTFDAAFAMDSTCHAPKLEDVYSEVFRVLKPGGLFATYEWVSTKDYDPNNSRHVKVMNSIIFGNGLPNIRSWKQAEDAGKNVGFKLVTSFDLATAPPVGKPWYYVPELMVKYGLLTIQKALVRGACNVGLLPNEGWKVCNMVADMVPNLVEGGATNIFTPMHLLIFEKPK
Description: as §2, §3

SMT-1 = molecular target: T4, SMT-1 (Botryococcus braunii, UniProt H2E7T8); assay: In vitro methyltransferase assay, yeast microsomes, 3H-SAM; format: biochemical, Botryococcus braunii race B; conditions: SMT-1 microsomes; 2 mM acceptor substrate, 50 μM 3H-SAM, 0.1% DHPC, 37° C., 5 min
T4 construct: led to the identification of six full-length ORFs; made in house; host or cells: Saccharomyces cerevisiae TN7 (TN-7), microsomal preparation
T4 sequence (H2E7T8 1-389): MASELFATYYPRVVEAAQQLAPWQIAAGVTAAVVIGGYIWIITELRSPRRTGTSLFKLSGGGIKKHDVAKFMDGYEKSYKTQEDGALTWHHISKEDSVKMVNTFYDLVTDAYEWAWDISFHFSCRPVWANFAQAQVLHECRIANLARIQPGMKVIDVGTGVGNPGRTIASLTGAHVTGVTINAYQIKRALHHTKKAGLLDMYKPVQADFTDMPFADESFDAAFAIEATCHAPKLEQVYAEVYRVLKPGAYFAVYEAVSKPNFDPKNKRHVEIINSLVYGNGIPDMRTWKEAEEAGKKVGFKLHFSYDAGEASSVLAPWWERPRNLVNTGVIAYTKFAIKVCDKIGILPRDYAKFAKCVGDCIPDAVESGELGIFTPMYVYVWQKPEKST
Experimental: as §1
(§4) To verify the in vivo results with in vitro determinations, the six SMT-like genes were expressed in yeast and microsomal preparations used as the source of the enzymes in assays containing 3H-SAM and either botryococcene or squalene as substrates.

SMT-3 = molecular target: T5, SMT-3 (Botryococcus braunii, UniProt H2E7U0); assay: as above; format: biochemical, Botryococcus braunii race B; conditions: SMT-3 microsomes; 2 mM acceptor substrate, 50 μM 3H-SAM, 0.1% DHPC, 37° C., 5 min
T5 construct: led to the identification of six full-length ORFs; made in house; host or cells: Saccharomyces cerevisiae TN7 (TN-7), microsomal preparation
T5 sequence (H2E7U0 1-392): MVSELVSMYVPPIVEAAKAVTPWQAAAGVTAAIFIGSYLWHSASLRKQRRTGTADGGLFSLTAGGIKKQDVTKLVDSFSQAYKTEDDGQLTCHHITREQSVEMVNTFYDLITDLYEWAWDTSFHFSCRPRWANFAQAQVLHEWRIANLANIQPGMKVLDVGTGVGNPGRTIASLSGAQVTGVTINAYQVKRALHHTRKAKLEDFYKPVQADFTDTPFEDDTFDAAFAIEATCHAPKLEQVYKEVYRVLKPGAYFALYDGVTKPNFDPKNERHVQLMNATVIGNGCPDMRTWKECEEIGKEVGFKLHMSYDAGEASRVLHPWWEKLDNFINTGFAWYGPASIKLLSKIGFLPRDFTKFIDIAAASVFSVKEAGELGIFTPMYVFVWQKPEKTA
Experimental: as §1, §4

SMT-2 = molecular target: T6, SMT-2 (Botryococcus braunii, UniProt H2E7T9); assay: as above; format: biochemical, Botryococcus braunii race B; conditions: SMT-2 microsomes; 2 mM acceptor substrate, 50 μM 3H-SAM, 0.1% DHPC, 37° C., 5 min
T6 construct: led to the identification of six full-length ORFs; made in house; host or cells: Saccharomyces cerevisiae TN7 (TN-7), microsomal preparation
T6 sequence (H2E7T9 1-389): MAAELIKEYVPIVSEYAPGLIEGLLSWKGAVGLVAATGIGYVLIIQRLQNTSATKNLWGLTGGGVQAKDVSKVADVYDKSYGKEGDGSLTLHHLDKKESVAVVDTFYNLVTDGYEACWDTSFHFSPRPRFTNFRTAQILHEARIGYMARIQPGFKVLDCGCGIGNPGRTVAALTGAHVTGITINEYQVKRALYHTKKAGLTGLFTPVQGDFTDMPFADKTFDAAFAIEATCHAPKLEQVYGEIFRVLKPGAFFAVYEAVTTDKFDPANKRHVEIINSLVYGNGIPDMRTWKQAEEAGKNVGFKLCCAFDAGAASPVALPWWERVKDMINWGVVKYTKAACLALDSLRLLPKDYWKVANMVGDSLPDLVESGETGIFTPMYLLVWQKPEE
Experimental: as §1, §4

TMT-3 [5] = molecular target: T1, TMT-3; assay: as above; format: biochemical, Botryococcus braunii race B; conditions: TMT-3 microsomes; 2 mM acceptor substrate, 50 μM 3H-SAM, 0.01% DHPC, 37° C., 5 min; mean ± S.E.M., n = 3
Experimental: as §1, §4

TMT-2 [6] = molecular target: T2, TMT-2; assay: as above; format: biochemical, Botryococcus braunii race B; parameters: led to the identification of six full-length ORFs; made in house; host or cells: Saccharomyces cerevisiae TN7 (TN-7), microsomal preparation; conditions: TMT-2 microsomes; 2 mM acceptor substrate, 50 μM 3H-SAM, 0.1% DHPC, 37° C., 5 min; mean ± S.E.M., n = 3
Experimental: as §1, with “analysis. […]” for “analysis.”

TMT-1 [7] = molecular target: T3, TMT-1; assay: as above; format: biochemical, Botryococcus braunii race B; parameters: led to the identification of six full-length ORFs; made in house; host or cells: Saccharomyces cerevisiae TN7 (TN-7), microsomal preparation; conditions: TMT-1 microsomes; 2 mM acceptor substrate, 50 μM 3H-SAM, 0.1% DHPC, 37° C., 5 min; mean ± S.E.M., n = 3
Experimental: as §1, with “analysis. […]” for “analysis.”

CC(C)=CCC[C@@H](C)[C@H]1CC[C@@]2(C)[C@@H]3CC[C@H]4C(C)(C)[C@@H](O)CC[C@@]45C[C@@]35CC[C@]12C [cycloartenol]
Methylation of the sterol acceptor substrate [1]: none of the six B. braunii SMT-like genes methylated

CC(C)=CCC[C@@H](C)[C@H]1CC[C@@]2(C)C3=C(CC[C@]12C)[C@@]1(C)CC[C@H](O)C(C)(C)[C@@H]1CC3 [lanosterol]
Methylation of the sterol acceptor substrate [1]: none of the six B. braunii SMT-like genes methylated

CC(C)=CCC/C(C)=C/CC/C(C)=C/CC/C=C(\C)CC/C=C(\C)CCC=C(C)C [squalene]
Share of total accumulating squalene converted to its methyl-derivatives (TMT-3 [2]): approximately 18% | Share of squalenes accumulated as methyl-derivatives (TMT-2 [3]): 40% | Share of total squalenes accumulated as methyl-derivatives (TMT-1 [4]): 63% | Enzyme activity (methyl groups transferred to acceptor substrate) (SMT-1): 0 pmol/h/µg | Enzyme activity (methyl groups transferred to acceptor substrate) (SMT-3): 0 pmol/h/µg | Enzyme activity (methyl groups transferred to acceptor substrate) (SMT-2): 0 pmol/h/µg | Enzyme activity (methyl groups transferred to acceptor substrate) (TMT-3 [5]): 35.4 ± 3.0 pmol/h/µg | Enzyme activity (methyl groups transferred to acceptor substrate) (TMT-2 [6]): 862.2 ± 59.9 pmol/h/µg | Enzyme activity (methyl groups transferred to acceptor substrate) (TMT-1 [7]): 513.7 ± 8.6 pmol/h/µg

CC(C)=CCC[C@@H](C)[C@H]1CC[C@H]2C3=C(CC[C@]12C)[C@@]1(C)CC[C@H](O)C[C@@H]1CC3 [zymosterol]
Methylation of the sterol acceptor substrate [1]: none of the six B. braunii SMT-like genes methylated
